The values that follow come from patent US6489098B1, “Means and methods for monitoring nucleoside reverse transcriptase inhibitor antiretroviral therapy and guiding therapeutic decisions in the treatment of HIV/AIDS” (ViroLogic, Inc., priority 1998, dated 2002).

For assay [1], the system named is patient RTV-621, RTV-285, RTV-690, RTV-770 and RTV-771 (T69SSA, T69SSG, T69SSS). As to the kind of experiment: Phenotypic susceptibility assay, patient isolates with T69SSX mutations/insertions. It counts as cell-based, HIV-1. To be noted: for susceptibility compared to wild-type control RTV: patient samples with insertions at 69. The procedure: In these experiments patient-derived segment(s) corresponding to the HIV protease and reverse transcriptase coding regions were either patient-derived segments amplified by the reverse transcription-polymerase chain reaction method (RT-PCR) using viral RNA isolated from viral particles present in the serum of HIV-infected individuals or were mutants of wild type HIV-1 made by site directed mutagenesis of a parental clone of resistance test vector DNA. Isolation of viral RNA was performed using standard procedures (e.g. RNAgents Total RNA Isolation System, Promega, Madison Wis. or RNAzol, Tel-Test, Friendswood, Tex.). The RT-PCR protocol was divided into two steps. A retroviral reverse transcriptase [e.g. Moloney MuLV reverse transcriptase (Roche Molecular Systems, Inc., Branchburg, N.J.), or avian myeloblastosis virus (AMV) reverse transcriptase, (Boehringer Mannheim, Indianapolis, Ind.)] was used to copy viral RNA into cDNA. The cDNA was then amplified using a thermostable DNA polymerase [e.g. Taq (Roche Molecular Systems, Inc., Branchburg, N.J.), Tth (Roche Molecular Systems, Inc., Branchburg, N.J.), PrimeZyme (isolated from Thermus brockianus, Biometra, Gottingen, Germany)] or a combination of thermostable polymerases as described for the performance of “long PCR” (Barnes, W. M., (1994) Proc. Natl. Acad. Sci, USA 91, 2216-2220) [e.g. Expand High Fidelity PCR System (Taq+Pwo), (Boehringer Mannheim. Indianapolis, Ind.) OR GeneAmp XL PCR kit (Tth+Vent), (Roche Molecular Systems, Inc., Branchburg, N.J.)].
Resistance test vectors incorporating the “test” patient-derived segments were constructed as described in PCT International Application No. PCT/US97/01609, filed Jan. 29, 1997 using an amplified DNA product of 1.5 kB prepared by RT-PCR using viral RNA as a template and oligonucleotides PDSApa (1) and PDSAge (2) as primers, followed by digestion with ApaI and AgeI or the isoschizimer PINAI. To ensure that the plasmid DNA corresponding to the resultant resistance test vector comprises a representative sample of the HIV viral quasi-species present in the serum of a given patient, many (>100) independent E. coli transformants obtained in the construction of a given resistance test vector were pooled and used for the preparation of plasmid DNA.
(§1) Resistance tests were carried out with resistance test vectors using two host cell types. Resistance test vector viral particles were produced by a first host cell (the resistance test vector host cell) that was prepared by transfecting a packaging host cell with the resistance test vector and the packaging expression vector. The resistance test vector viral particles were then used to infect a second host cell (the target host cell) in which the expression of the indicator gene is measured.
The resistance test vectors containing a functional luciferase gene cassette were constructed and host cells were transfected with the resistance test vector DNA. The resistant test vectors contained patient-derived reverse transcriptase and protease sequences that were either susceptible or resistant to the antiretroviral agents, such as nucleoside reverse transcriptase inhibitors, non-nucleoside reverse transcriptase inhibitors and protease inhibitors. The resistance test vector viral particles produced by transfecting the resistance test vector DNA into host cells, either in the presence or absence of protease inhibitors, were used to infect target host cells grown either in the absence of NRTI or NNRTI or In the presence of increasing concentrations of the drug. The amount of luciferase activIty produced in infected target host cells in the presence of drug was compared to the amount of luciferase produced in infected target host cells in the absence of drug. Drug resistance was measured as the amount of drug required to inhibit by 50% the luciferase activity detected in the absence of drug (Inhibitory concentration 50%, IC50). […]

Assay [2] concerns HIV-1 RT mutant resistance test vector A62V. As to the kind of experiment: Phenotypic susceptibility assay, site directed RTV A62V. To be noted: RTV with A62V vs wild type RTV; for Average fold reduction in susceptibility: 3 replicates. It counts as cell-based. As for the experimental part: as §1
(§2) The resistance test vectors containing a functional luciferase gene cassette were constructed and host cells were transfected with the resistance test vector DNA. The resistant test vectors contained patient-derived reverse transcriptase and protease sequences that were either susceptible or resistant to the antiretroviral agents, such as nucleoside reverse transcriptase inhibitors, non-nucleoside reverse transcriptase inhibitors and protease inhibitors. The resistance test vector viral particles produced by transfecting the resistance test vector DNA into host cells, either in the presence or absence of protease inhibitors, were used to infect target host cells grown either in the absence of NRTI or NNRTI or In the presence of increasing concentrations of the drug. The amount of luciferase activIty produced in infected target host cells in the presence of drug was compared to the amount of luciferase produced in infected target host cells in the absence of drug. Drug resistance was measured as the amount of drug required to inhibit by 50% the luciferase activity detected in the absence of drug (Inhibitory concentration 50%, IC50). The IC50 values were determined by plotting percent drug inhibition vs. log 10 drug concentration.
(§3) Host cells were seeded in 10-cm-diameter dishes and were transfected several days after plating with resistance test vector plasmid DNA and the envelope expression vector. Transfections were performed using a calcium-phosphate precipitation procedure. The cell culture media containing the DNA precipitate was replaced with fresh medium, from one to 24 hours, after transfection. Cell culture media containing resistance test vector viral particles was harvested one to four days after transfection and was passed through a […] filter before being stored at −80° C. HIV capsid protein (p24) levels in the harvested cell culture media were determined by an EIA method as described by the manufacturer (SIAC; Frederick, Md.). Before infection, target cells (293 and 293/T) were plated in cell culture media. Control infections were performed using cell culture media from mock transfections (no DNA) or transfections containing the resistance test vector plasmid DNA without the envelope expression plasmid. One to three or more days after infectIon the media was removed and cell lysis buffer (Promega) was added to each well. Cell lysates were assayed for luciferase activity (FIG. 3). The inhibitory effect of the drug was determined using the following equation:
(§4) % luciferase inhibition=1−(RLUluc[drug]÷RLUluc)×100
(§5) where RLUluc [drug] is the relative light unit of luciferase activity in infected cells in the presence of drug and RLUluc is the Relative Light Unit of luciferase activity in infected cells in the absence of drug. IC50 values were obtained from the sigmoidal curves that were generated from the data by plotting the percent inhibition of luciferase activity vs. the log 10 drug concentration. The drug inhibition curves are shown in (FIG. 3).
(§6) Genotypic changes that are observed to correlate with changes in phenotypic patterns of drug susceptibility are evaluated by construction of resistance test vectors containing the specific mutation on a defined, wild-type (drug susceptible) genetic background. Mutations may be incorporated alone and/or in combination with other known drug resistance mutations that are thought to modulate the susceptibility of HIV to a certain drug or class of drugs. […]

Assay [3] concerns HIV-1 RT mutant resistance test vector T69SSA. As to the kind of experiment: Phenotypic susceptibility assay, site directed RTV T69SSA. It is filed as cell-based. To be noted: RTV with T69SSA vs wild type RTV; for Average fold reduction in susceptibility: 3 replicates. The procedure: as §1, §2, §3, §4, §5, §6
The subject of assay [4] is HIV strains resistant to abacavir. To be noted: cited from earlier work.
Assay [5] deals with HIV-1 RT mutant resistance test vector Q151M-RTV. As to the kind of experiment: Phenotypic susceptibility assay, site directed RTV Q151M. It is filed as cell-based. The conditions noted are these: for effect on susceptibility (words): RTV with Q151M vs wild type RTV. As for the experimental part: as §1, §2, §3
% luciferase inhibition=1−(RLUluc[drug]÷RLUluc)×100 […]
Genotypic changes that are observed to correlate with changes in phenotypic patterns of drug susceptibility are evaluated by construction of resistance test vectors containing the specific mutation on a defined, wild-type (drug susceptible) genetic background. […]

Values joined by “and” are separate entries in the source; they are usually repeats but may differ in a detail not shown here. Equal values may be shown once. “Also recorded” adds a separate entry of the source.

On to `Nc1nc(NC2CC2)c2ncn([C@H]3C=C[C@@H](CO)C3)c2n1` [ABC, abacavir], for which the “susceptibility compared to wild-type control RTV” value in assay [1] is listed as “decreased susceptibility”. Further, the figures for the “Average fold reduction in susceptibility” value in assay [2] and in assay [3] were 0.59 fold and 2.52 fold, respectively. In assay [4] (multiple mutations (at least three)), the fold resistance is listed as 10 fold.
For the compound `Cc1cn([C@H]2C[C@H](N=[N+]=[N-])[C@@H](CO)O2)c(=O)[nH]c1=O` [AZT, zidovudine], the “susceptibility compared to wild-type control RTV” value in assay [1] is given as “decreased susceptibility”. The “effect on susceptibility (words)” value in assay [2] was “slight increases in susceptibility to AZT; also recorded: had no effect on AZT susceptibility; also recorded: had no affect on AZT susceptibility”; in assay [3], “small but significant change in susceptibility; also recorded: reduced AZT susceptibility slightly”; in assay [5] it was “Significant changes in susceptibility; also recorded: reduced d4T and AZT susceptibility”. Besides, the “Average fold reduction in susceptibility” value was 1.25 fold in assay [2]; “approximately two-fold and 1.98 fold” in assay [3]. For the same compound, the “cross resistance of abacavir-resistant strains” value (shortened to “cross resistance”) in assay [4] was “not to d4T or ZDV”.
On to `Cc1cn([C@H]2C=C[C@@H](CO)O2)c(=O)[nH]c1=O` [d4T, stavudine], for which the fold reduced susceptibility in assay [1] (four patient viruses with T69SSX mutations/insertions (FIG. 5)) is reported as 2-10 fold. Also, in assay [1], the “susceptibility compared to wild-type control RTV” value is on record as “decrease in susceptibility to d4T; also recorded: significant reduction in d4T susceptibility; also recorded: decreased susceptibility”. The “effect on susceptibility (words)” value in assay [2] was “no differences in their susceptibility to d4T; also recorded: did not reduce d4T susceptibility; also recorded: had no affect on d4T susceptibility”; in assay [3], “did not reduce d4T susceptibility”; in assay [5], “less susceptible to d4T than the wild type control RTV; also recorded: reduced d4T and AZT susceptibility”. For the same compound, the “Average fold reduction in susceptibility” value in assay [2] is 0.84 fold; in assay [3], 2 fold and less than two-fold and 1.58 fold. The “cross resistance” value in assay [4] is listed as “not to d4T or ZDV”. In addition, the “fold reduction in susceptibility” value in assay [5] (RTV with Q151M vs control RTV) is recorded as “approximately three-fold”.
Regarding `Nc1ccn([C@H]2CC[C@@H](CO)O2)c(=O)n1` [ddC, zalcitabine], the “susceptibility compared to wild-type control RTV” value in assay [1] is “decreased susceptibility”. In addition, the “Average fold reduction in susceptibility” value was found to be 0.74 fold in assay [2] and 1.55 fold in assay [3]. Further, the “cross resistance” value in assay [4] is given as “Cross resistance”. Besides, in assay [5], the “effect on susceptibility (words)” value was “Significant changes in susceptibility”.
As for `O=c1[nH]cnc2c1ncn2[C@H]1CC[C@@H](CO)O1` [ddI, didanosine], the “susceptibility compared to wild-type control RTV” value in assay [1] is on record as “decreased susceptibility”. For the same compound, the figures for the “Average fold reduction in susceptibility” value in assay [2] and in assay [3] were 0.84 fold and 1.32 fold, respectively. Moreover, in assay [4], the “cross resistance” value was “Cross resistance”. Moreover, the “effect on susceptibility (words)” value in assay [5] was “Significant changes in susceptibility”.
